Test results published in patent publication US20080078408A1, “URETHRAL CONDOMS AND LIQUID FEMALE CONDOMS” (priority 2005, published 2008).

Tests used:
[1] = Physical blocking wall test: pigments and dye rubbed on coated, incised swine vaginal segments, then rinsed and scrubbed
Description: EXPERIMENT 6: Two pigments whose particle size distributions correspond to sizes of STD-causing germs including HIV (diameter=125 nm) were chosen. The blue pigment (PIG-1) had the particle size distribution of 100-20,000 nm, while the violet pigment (PIG-2) had the particle size distribution of 30-500 nm. For the purpose of comparison, a blue dye ink (DYE) (molecular diameter=2.7 nm) was used as well. Instead of the human vagina, the swine vagina was used. […] Then, the vaginal segments in the left column were wetted with water, while those in the second, the third, the fourth and the fifth column were applied with corn syrup (SYRUP, 55% maltose), a composition made from polyvinyl alcohol (PVA-gel), a composition made from sodium carboxymethyl cellulose (SCMC-gel) and a composition made from hydroxyethyl cellulose (HEC-gel), respectively, as shown in FIG. 2B. After that, the blue pigment (PIG-1) was applied on the vaginal segments in the upper row, while the violet pigment (PIG-2) and the blue dye ink (DYE) were applied on the vaginal segments in the middle and the lower row, respectively, as shown in FIG. 2C. The pigments and the dye ink applied on the vaginal segments were rubbed 50 times violently with the index finger being pressed in an attempt to simulate the frictional movement of coitus. Thereafter that, they were scrubbed off and cleansed out with the vaginal scrubbing sponge of the present invention as shown in FIG. 6.

sperms = experiment: Spermicidal test: semen on a slide glass mixed with a drop of liquid, observed with an optical microscope; assay type: cell-based
Description: The present inventor discovered a surprising fact for the first time that distilled water is an excellent spermicide.
EXPERIMENT 1: The fact that distilled water is an excellent spermicide was proven experimentally as follows: (1) One drop of semen was spread on a slide glass with a cotton swab and active movements of sperms were confirmed. (2) Upon mixing with a drop of distilled water, 100% of sperms stood still immediately. […] All sperms might be dead by explosive expansion of the sperm cell. While not wishing to be bound by any particular theory, the inventor believes that this is due to a lot of water smeared into the cell due to the difference in osmotic pressure between the cell and distilled water.
(3) Upon decreasing the viscosity by adding several drops of saline solution, the sperms regained their original activity.
EXPERIMENT 4: The fact that polymer solutions made from distilled water and water-soluble polymers exterminated sperms was verified experimentally as follows: (1) One drop of semen was spread on a slide glass with a cotton swab and active movements of sperms were confirmed. (2) Upon mixing with a drop of water-soluble polymer solution, all sperms came to a standstill without any movement in their heads or tails. […]

Row | Compound | pigments left on incisions ([1]; incisions, after rinsing and scrubbing) | blue dye ink (molecular diameter 2.7 nm) left after being rinsed and scrubbed ([1]; intact vaginal surfaces and incisions) | pigments (PIG-1, PIG-2; 30-20,000 nm) left on vaginal segments after rinsing ([1]; intact vaginal surfaces and incisions, rubbed 50 times, rinsed with running water, then scrubbed) | sperm activity upon later addition of saline solution (sperms; saline solution added after mixing with the liquid) | sperms stood still immediately upon mixing (sperms; semen on slide glass mixed with drop(s) of the liquid) [%]
1 | O [water] | remained heavily | remained heavily | still remained | – | –
2 | O [distilled water] | – | – | – | failed to show any activity | 100
